Like-named read-outs stand apart in the source and are kept apart here.
Legend:
[1] = test system: IFNγ-induced STAT1 phosphorylation (pSTAT1) in B16F10 cells; assay: B16F10 Phospho-STAT1 HTRF proximal pharmacodynamic (PD) assay; type: cell-based, murine; details: for EC50: B16-F10; for Thiochromane x-fold>potency cellular: pSTAT1 EC50 of chromane comparator over thiochromane
Summary of the method: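 Murine B16F10 melanoma cells dosed 3 h at 37 °C (10-point, 3-fold dilution from 50 μM top dose), then stimulated 10 min with recombinant mouse IFNγ (100 nM final) and stopped with 3.3 μM staurosporine for 1 h. pSTAT1 in lysates detected by HTRF (Eu cryptate/d2 antibodies, 3 h RT, 665 nm emission); EC50 from dose-response curves.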

[2] = molecular target: T1, His tagged PTPN2 (TC45) protein (Homo sapiens, UniProt P17706); assay: Mobility Shift Assay (MSA) for PTPN2 inhibitors; type: biochemical; details: for Thiochromane x-fold>potency biochemical: Table 3, PTPN2 MSA IC50 of chromane comparator over thiochromane; for IC50: enzyme 0.5 nM, substrate 2 μM, 10 minutes preincubation at room temperature
T1 construct: His; made in house
T1 sequence (P17706 1-387 isoform P17706-2): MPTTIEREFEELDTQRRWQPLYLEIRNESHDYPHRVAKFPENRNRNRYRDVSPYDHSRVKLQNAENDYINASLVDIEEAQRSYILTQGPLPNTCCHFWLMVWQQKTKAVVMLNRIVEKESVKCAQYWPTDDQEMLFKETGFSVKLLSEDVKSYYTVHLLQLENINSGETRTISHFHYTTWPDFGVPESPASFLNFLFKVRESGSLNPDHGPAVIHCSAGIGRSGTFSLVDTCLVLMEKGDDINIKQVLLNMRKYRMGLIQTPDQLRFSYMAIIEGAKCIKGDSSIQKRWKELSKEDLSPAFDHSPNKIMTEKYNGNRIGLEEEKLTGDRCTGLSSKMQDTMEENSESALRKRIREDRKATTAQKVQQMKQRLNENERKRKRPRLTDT
Summary of the method: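 Enzyme (0.5 nM) preincubated 10 min at RT with compound (12-point, 1:3 dilution) in 50 mM HEPES pH 7.5, 10 mM EDTA, 2 mM DTT; OG488-labelled phospho-insulin-receptor peptide substrate (2 μM) then added for 10 min. After quench, dephosphorylation measured by microfluidic mobility shift (ex 488/em 530 nm); IC50 from % inhibition.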

[3] = molecular target: T2, His tagged full-length PTPN1 protein (Homo sapiens, UniProt P18031); assay: Mobility Shift Assay (MSA) for PTPN1 inhibitors; type: biochemical; details: enzyme 0.5 nM, substrate 2 μM, 10 minutes preincubation at room temperature
T2 construct: His; made in house
T2 sequence (P18031 1-435): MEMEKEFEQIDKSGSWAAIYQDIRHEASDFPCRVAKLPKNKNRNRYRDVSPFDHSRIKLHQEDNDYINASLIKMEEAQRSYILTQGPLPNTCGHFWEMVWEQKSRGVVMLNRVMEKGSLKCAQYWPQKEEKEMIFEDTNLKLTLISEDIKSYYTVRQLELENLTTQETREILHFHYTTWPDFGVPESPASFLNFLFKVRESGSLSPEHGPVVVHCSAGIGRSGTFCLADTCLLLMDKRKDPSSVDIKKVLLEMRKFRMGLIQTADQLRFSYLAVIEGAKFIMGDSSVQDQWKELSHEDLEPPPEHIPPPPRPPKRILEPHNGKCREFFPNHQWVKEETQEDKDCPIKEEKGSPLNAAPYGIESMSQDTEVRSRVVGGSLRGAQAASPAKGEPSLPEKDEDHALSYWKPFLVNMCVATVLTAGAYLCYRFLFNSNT
Summary of the method: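 Full-length His-tagged human PTPN1 (0.5 nM) was pre-incubated 10 min at RT with compound (12-point, 1:3) in HEPES pH 7.5 buffer with EGTA, EDTA, Tween-20 and DTT. Fluorescent phospho-insulin-receptor peptide (2 μM) was then added for 10 min. After quench, dephosphorylation was measured by microfluidic mobility shift, and IC50 was taken from % inhibition.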

[4] = Table 2, 3 hours compound, then mouse IFNγ 100 nM 10 minutes, top dose 50 μM, read-out: B16F10 IFNγ Induced pSTAT1 EC50
[5] = Mus musculus, Table 3, B16F10 cells, IFNγ-induced, thiochromanes (X = S) and chromane comparators (X = O), read-out: pSTAT1 EC50

Row | EC50 [1, 4] [µM] | EC50 [1, 5] [µM] | IC50 [3] [µM] | SMILES | Thiochromane x-fold>potency cellular ([1]; Table 3) | Thiochromane x-fold>potency biochemical [2] | IC50 [2] [µM]
1 | 6.03 | 6.03 | 0.01 to 0.1 | O=C1CN(c2c(O)cc3c(c2F)C[C@H](NCCC2CCOCC2)CS3)S(=O)(=O)N1 [Compound 109, 5-[(3S)-5-fluoro-7-hydroxy-3-{[2-(oxan-4-yl)ethyl]amino}-3,4-dihydro-2H-1-benzothiopyran-6-yl]-1λ^6,2,5-thiadiazolidine-1,1,3-trione] | 5.3 | 2.0 | < 0.01
2 | 11.9 | – | 0.01 to 0.1 | CC(C)(CO)CCN[C@@H]1CSc2cc(O)c(N3CC(=O)NS3(=O)=O)c(F)c2C1 [Compound 106, 5-{(3S)-5-fluoro-7-hydroxy-3-[(4-hydroxy-3,3-dimethylbutyl)amino]-3,4-dihydro-2H-1-benzothiopyran-6-yl}-1λ^6,2,5-thiadiazolidine-1,1,3-trione] | – | – | < 0.01
3 | 27.6 | 27.6 | 0.01 to 0.1 | O=C1CN(c2c(O)cc3c(c2F)C[C@H](NCCCc2ccccc2)CS3)S(=O)(=O)N1 [Compound 136, 5-{(3S)-5-fluoro-7-hydroxy-3-[(3-phenylpropyl)amino]-3,4-dihydro-2H-1-benzothiopyran-6-yl}-1λ^6,2,5-thiadiazolidine-1,1,3-trione] | >1.8 | 0.8 | 0.01 to 0.1
4 | 7.98 | – | 0.01 to 0.1 | O=C1CN(c2c(O)cc3c(c2F)C[C@H](NCC2CC2)CS3)S(=O)(=O)N1 [Compound 111, 5-{(3S)-3-[(cyclopropylmethyl)amino]-5-fluoro-7-hydroxy-3,4-dihydro-2H-1-benzothiopyran-6-yl}-1λ^6,2,5-thiadiazolidine-1,1,3-trione] | – | – | 0.01 to 0.1
5 | 6.99 | – | 0.01 to 0.1 | O=C1CN(c2c(O)cc3c(c2F)C[C@H](NCC2CCOCC2)CS3)S(=O)(=O)N1 [Compound 110, 5-[(3S)-5-fluoro-7-hydroxy-3-{[(oxan-4-yl)methyl]amino}-3,4-dihydro-2H-1-benzothiopyran-6-yl]-1λ^6,2,5-thiadiazolidine-1,1,3-trione] | – | – | 0.01 to 0.1
6 | 4.81 | – | 0.01 to 0.1 | O=C1CN(c2c(O)cc3c(c2F)C[C@H](NCCC2(CO)CCCC2)CS3)S(=O)(=O)N1 [Compound 105, 5-[(3S)-5-fluoro-7-hydroxy-3-({2-[1-(hydroxymethyl)cyclopentyl]ethyl}amino)-3,4-dihydro-2H-1-benzothiopyran-6-yl]-1λ^6,2,5-thiadiazolidine-1,1,3-trione] | – | – | < 0.01
7 | 8.15 | – | 0.01 to 0.1 | O=C1CN(c2c(O)cc3c(c2F)C[C@H](NCc2ccccc2)CS3)S(=O)(=O)N1 [Compound 121, 5-[(3S)-3-(benzylamino)-5-fluoro-7-hydroxy-3,4-dihydro-2H-1-benzothiopyran-6-yl]-1λ^6,2,5-thiadiazolidine-1,1,3-trione] | – | – | 0.01 to 0.1
8 | 1.78 | 1.78 | 0.01 to 0.1 | O=C1CN(c2c(O)cc3c(c2F)C[C@H](NCCC2CCOC2)CS3)S(=O)(=O)N1 (stereo partly drawn) [Compound 114, 5-[(3S)-5-fluoro-7-hydroxy-3-{[2-(oxolan-3-yl)ethyl]amino}-3,4-dihydro-2H-1-benzothiopyran-6-yl]-1λ^6,2,5-thiadiazolidine-1,1,3-trione] | 12.7 | 6.0 | < 0.01
9 | 2.95 | 2.95 | 0.01 to 0.1 | CC1=C(CCN[C@@H]2CSc3cc(O)c(N4CC(=O)NS4(=O)=O)c(F)c3C2)C(C)(C)CCC1 [Compound 140, 5-[(3S)-5-fluoro-7-hydroxy-3-{[2-(2,6,6-trimethylcyclohex-1-en-1-yl)ethyl]amino}-3,4-dihydro-2H-1-benzothiopyran-6-yl]-1λ^6,2,5-thiadiazolidine-1,1,3-trione] | >16.9 | 1.5 | 0.01 to 0.1
10 | 2.03 | – | 0.01 to 0.1 | CC(C)CN[C@@H]1CSc2cc(O)c(N3CC(=O)NS3(=O)=O)c(F)c2C1 [Compound 113, 5-{(3S)-5-fluoro-7-hydroxy-3-[(2-methylpropyl)amino]-3,4-dihydro-2H-1-benzothiopyran-6-yl}-1λ^6,2,5-thiadiazolidine-1,1,3-trione] | – | – | 0.01 to 0.1
11 | 1.21 | – | 0.01 to 0.1 | CCCCN[C@@H]1CSc2cc(O)c(N3CC(=O)NS3(=O)=O)c(F)c2C1 [Compound 112, 5-[(3S)-3-(butylamino)-5-fluoro-7-hydroxy-3,4-dihydro-2H-1-benzothiopyran-6-yl]-1λ^6,2,5-thiadiazolidine-1,1,3-trione] | – | – | < 0.01
12 | 1.01 | – | < 0.01 | O=C1CN(c2c(O)cc3c(c2F)C[C@H](NCCC2CCCC2)CS3)S(=O)(=O)N1 [Compound 120, 5-{(3S)-3-[(2-cyclopentylethyl)amino]-5-fluoro-7-hydroxy-3,4-dihydro-2H-1-benzothiopyran-6-yl}-1λ^6,2,5-thiadiazolidine-1,1,3-trione] | – | – | < 0.01
13 | 1.48 | 1.48 | 0.01 to 0.1 | O=C1CN(c2c(O)cc3c(c2F)C[C@H](NCC2C4CCCC42)CS3)S(=O)(=O)N1 (mixture of isomers) [Compound 138, 5-[(3S)-3-({[(1RS,5SR)-bicyclo[3.1.0]hexan-6-yl]methyl}amino)-5-fluoro-7-hydroxy-3,4-dihydro-2H-1-benzothiopyran-6-yl]-1λ^6,2,5-thiadiazolidine-1,1,3-trione] | >33.8 | 2.0 | 0.01 to 0.1
14 | > 50 | – | 0.01 to 0.1 | CC(CCN[C@@H]1CSc2cc(O)c(N3CC(=O)NS3(=O)=O)c(F)c2C1)c1ccccc1 (stereo partly drawn) [Compound 134, 5-{(3S)-5-fluoro-7-hydroxy-3-[(3-phenylbutyl)amino]-3,4-dihydro-2H-1-benzothiopyran-6-yl}-1λ^6,2,5-thiadiazolidine-1,1,3-trione] | – | – | < 0.01
15 | 1.76 | – | < 0.01 | CCC(C)CCN[C@@H]1CSc2cc(O)c(N3CC(=O)NS3(=O)=O)c(F)c2C1 (stereo partly drawn) [Compound 108, 5-{(3S)-5-fluoro-7-hydroxy-3-[(3-methylpentyl)amino]-3,4-dihydro-2H-1-benzothiopyran-6-yl}-1λ^6,2,5-thiadiazolidine-1,1,3-trione] | – | – | < 0.01
16 | 17.2 | – | > 0.1 | CC(C)N[C@@H]1CSc2cc(O)c(N3CC(=O)NS3(=O)=O)c(F)c2C1 [Compound 116, 5-{(3S)-5-fluoro-7-hydroxy-3-[(propan-2-yl)amino]-3,4-dihydro-2H-1-benzothiopyran-6-yl}-1λ^6,2,5-thiadiazolidine-1,1,3-trione] | – | – | 0.01 to 0.1
17 | > 50 | – | 0.01 to 0.1 | O=C1CN(c2c(O)cc3c(c2F)C[C@H](NCC2(F)CC2)CS3)S(=O)(=O)N1 [Compound 125, 5-[(3S)-5-fluoro-3-{[(1-fluorocyclopropyl)methyl]amino}-7-hydroxy-3,4-dihydro-2H-1-benzothiopyran-6-yl]-1λ^6,2,5-thiadiazolidine-1,1,3-trione] | – | – | 0.01 to 0.1
18 | 3.96 | – | 0.01 to 0.1 | CCCN[C@@H]1CSc2cc(O)c(N3CC(=O)NS3(=O)=O)c(F)c2C1 [Compound 107, 5-[(3S)-5-fluoro-7-hydroxy-3-(propylamino)-3,4-dihydro-2H-1-benzothiopyran-6-yl]-1λ^6,2,5-thiadiazolidine-1,1,3-trione] | – | – | 0.01 to 0.1

From patent US20250042894A1, “PROTEIN TYROSINE PHOSPHATASE INHIBITORS AND METHODS OF USE THEREOF” (Calico Life Sciences LLC, priority 2021, published 2025)
